According to US20230173018A1, “CASPOFUNGIN DERIVATIVES AND ASSAYS FOR EVALUATING ANTIFUNGAL TREATMENT EFFICACY” (priority 2020, published 2023):
Values after ≈ are worked out from the molar mass of the structure shown. Like-named read-outs stand apart in the source and are kept apart here.

Legend:
Type in all cases: cell-based
[1] = test system: C. glabrata T-982 (11-181); assay: MIC, broth double dilution
Description: (§1) The antifungal activities of compounds 1a, 1 and 2 (collectively: caspofungin derivatives) were compared to that of caspofungin and CSF-BOD using a panel of 49 C. albicans and C. glabrata strains (Tables 1 and 2). The panel included ATCC strains and clinical isolates as well a collection of caspofungin-responsive strains and their corresponding isogenic caspofungin-resistant derivatives, constructed by introducing point mutations within and near the defined hotspots in the FKS1 and/or FKS2 genes of the GS complex. Minimal inhibitory concentration (MIC) values for all strains were determined using the broth double dilution method and are summarized in FIG. 2 and Table 2. […] The clinical breakpoints (threshold) for caspofungin-resistance in C. albicans and C. glabrata are 1 μg/mL and 0.5 μg/mL, respectively.

[2] = test system: C. albicans SC5314; assay: MIC, broth double dilution; conditions: strain no. 1, C. albicans SC5314, WT
Description: as §1

[3] = test system: C. albicans BWP17; assay: MIC, broth double dilution; conditions: strain no. 9, BWP17, parental RM1000
Description: as §1

[4] = test system: C. albicans ATCC 10231; assay: MIC, broth double dilution
Description: as §1

[5] = test system: C. glabrata T-191 (11-331); assay: MIC, broth double dilution
Description: as §1

[6] = test system: C. glabrata ATCC 15126; assay: MIC, broth double dilution
Description: as §1

[7] = test system: C. glabrata TGL00263; assay: microbe, parasite or virus in culture
Description: as §1

[8] = test system: C. glabrata TGL00277; assay: microbe, parasite or virus in culture
Description: as §1

[9] = test system: C. glabrata CST78; assay: microbe, parasite or virus in culture; conditions: strain no. 26, C. glabrata CST78
Description: as §1

[10] = test system: C. albicans DPL1016 (DP-A15-10); assay: microbe, parasite or virus in culture
Description: as §1

[11] = test system: C. albicans T-2069 (DP-85); assay: microbe, parasite or virus in culture
Description: as §1

[12] = test system: C. glabrata TGL00293; assay: microbe, parasite or virus in culture
Description: as §1

[13] = test system: C. glabrata TGL00265; assay: microbe, parasite or virus in culture
Description: as §1

[14] = test system: C. glabrata TGL00056; assay: microbe, parasite or virus in culture
Description: as §1

[15] = test system: C. albicans CG72; assay: microbe, parasite or virus in culture; conditions: strain no. 7, CG72, parental CAM, pKE1:GFP-YPT72
Description: as §1

[16] = test system: C. albicans T-2068 (DP-C42); assay: microbe, parasite or virus in culture
Description: as §1

[17] = test system: C. albicans DPL1015 (DP-A15); assay: microbe, parasite or virus in culture
Description: as §1

[18] = test system: C. albicans SN95; assay: microbe, parasite or virus in culture; conditions: strain no. 8, SN95, parental RM1000
Description: as §1

[19] = test system: C. glabrata T-985 (11-076); assay: microbe, parasite or virus in culture; conditions: strain no. 49, T-985 (11-076), clinical isolate
Description: as §1

[20] = test system: C. glabrata TGL00253; assay: microbe, parasite or virus in culture
Description: as §1

[21] = test system: C. albicans T-2076 (DP-194); assay: microbe, parasite or virus in culture
Description: as §1

[22] = test system: C. albicans T-2077 (DP-205); assay: microbe, parasite or virus in culture
Description: as §1

[23] = test system: C. glabrata TGL00054; assay: microbe, parasite or virus in culture
Description: as §1

[24] = test system: C. glabrata TGL00065; assay: microbe, parasite or virus in culture
Description: as §1

[25] = test system: C. glabrata TGL00294; assay: microbe, parasite or virus in culture
Description: as §1

[26] = test system: C. glabrata TGL00091; assay: microbe, parasite or virus in culture
Description: as §1

[27] = test system: C. glabrata TGL00275; assay: microbe, parasite or virus in culture
Description: as §1

[28] = test system: C. glabrata TGL00258; assay: microbe, parasite or virus in culture
Description: as §1

[29] = test system: C. glabrata TGL00107; assay: microbe, parasite or virus in culture
Description: as §1

[30] = test system: C. glabrata DPL1086; assay: microbe, parasite or virus in culture
Description: as §1

[31] = test system: C. glabrata TGL00291; assay: microbe, parasite or virus in culture
Description: as §1

[32] = test system: C. albicans T-2074 (DP-122); assay: microbe, parasite or virus in culture
Description: as §1

[33] = test system: C. glabrata TGL00264; assay: microbe, parasite or virus in culture
Description: as §1

[34] = test system: C. glabrata TGL00256; assay: microbe, parasite or virus in culture
Description: as §1

[35] = Candida albicans, read-out: MIC
[36] = Nakaseomyces glabratus, read-out: MIC

CC[C@H](C)C[C@H](C)CCCCCCCCC(=O)N[C@H]1C[C@@H](O)[C@@H](NCCNC(=O)CCc2ccc3n2[B-](F)(F)[N+]2=C(C)C=C(C)C2=C3)NC(=O)[C@@H]2[C@@H](O)CCN2C(=O)[C@H]([C@H](O)CCN)NC(=O)[C@H]([C@H](O)[C@@H](O)c2ccc(O)cc2)NC(=O)[C@@H]2C[C@@H](O)CN2C(=O)[C@H]([C@@H](C)O)NC1=O [CSF-BOD]
MIC ([1]; strain no. 46, T-982 (11-181), clinical isolate): 1 µg/mL (≈ 0.731 µM)
MIC [2]: 1 µg/mL (≈ 0.731 µM)
MIC [3]: 1 µg/mL (≈ 0.731 µM)
MIC ([4]; strain no. 11, C. albicans ATCC 10231): 2 µg/mL (≈ 1.46 µM)
MIC ([5]; strain no. 43, T-191 (11-331), clinical isolate): 1 µg/mL (≈ 0.731 µM)
MIC ([6]; strain no. 41, C. glabrata ATCC 15126): 2 µg/mL (≈ 1.46 µM)
MIC ([7]; strain no. 28, TGL00263, parental CST78, FKS mutant): >64 µg/mL
MIC ([8]; strain no. 33, TGL00277, parental EF1620, FKS mutant): >64 µg/mL
MIC [9]: 2 µg/mL (≈ 1.46 µM)
MIC ([10]; strain no. 3, DPL1016 (DP-A15-10), parental SC5314, FKS1 mutant HS1-S645P): >64 µg/mL
MIC ([11]; strain no. 14, T-2069 (DP-85), clinical isolate, FKS1 HS1-S645F mutation): >64 µg/mL
MIC ([12]; strain no. 37, TGL00293, parental BG2, FKS mutant): >64 µg/mL
MIC ([13]; strain no. 30, TGL00265, parental CST78, FKS mutant): >64 µg/mL
MIC ([14]; strain no. 22, TGL00056, parental CST34, FKS mutant): >64 µg/mL
MIC [15]: 1 µg/mL (≈ 0.731 µM)
MIC ([16]; strain no. 4, T-2068 (DP-C42), parental SC5314, FKS1 HS1-F641S mutation): >64 µg/mL
MIC ([17]; strain no. 2, DPL1015 (DP-A15), parental SC5314, FKS1 mutant HS1-S645S/P): 16 µg/mL (≈ 11.7 µM)
MIC [18]: 2 µg/mL (≈ 1.46 µM)
MIC [19]: 2 µg/mL (≈ 1.46 µM)
MIC ([20]; strain no. 20, TGL00253, parental CST109, FKS2 mutant): >64 µg/mL
MIC ([21]; strain no. 13, T-2076 (DP-194), clinical isolate, FKS1 HS1-S645F, HS2-R1361R/H mutation): 32 µg/mL (≈ 23.4 µM)
MIC ([22]; strain no. 15, T-2077 (DP-205), clinical isolate, FKS1 HS1-S645P mutation): >64 µg/mL
MIC ([23]; strain no. 19, TGL00054, parental CST109, FKS2 mutant): >64 µg/mL
MIC ([24]; strain no. 27, TGL00065, FKS mutant): >64 µg/mL
MIC ([25]; strain no. 38, TGL00294, parental BG2, FKS mutant): >64 µg/mL
MIC ([26]; strain no. 35, TGL00091, FKS mutant): >64 µg/mL
MIC ([27]; strain no. 32, TGL00275, FKS mutant): >64 µg/mL
MIC ([28]; strain no. 25, TGL00258, parental CST34, FKS mutant): >64 µg/mL
MIC ([29]; strain no. 23, TGL00107, parental CST34, FKS mutant): >64 µg/mL
MIC ([30]; strain no. 17, DPL1086, parental ATCC 90030, FKS1 mutant HS1-S629P): 16 µg/mL (≈ 11.7 µM)
MIC ([31]; strain no. 36, TGL00291, parental BG2, FKS mutant): >64 µg/mL
MIC ([32]; strain no. 12, T-2074 (DP-122), clinical isolate, FKS1 HS1-P649H mutation): 16 µg/mL (≈ 11.7 µM)
MIC ([33]; strain no. 29, TGL00264, parental CST78, FKS mutant): >64 µg/mL
MIC ([34]; strain no. 24, TGL00256, parental CST34, FKS mutant): 8 µg/mL (≈ 5.85 µM)

CC[C@H](C)C[C@H](C)CCCCCCCCC(=O)N[C@H]1C[C@@H](O)[C@@H](NCCN)NC(=O)[C@@H]2[C@@H](O)CCN2C(=O)[C@H]([C@H](O)CCN)NC(=O)[C@H]([C@H](O)[C@@H](O)c2ccc(O)cc2)NC(=O)[C@@H]2C[C@@H](O)CN2C(=O)[C@H]([C@@H](C)O)NC1=O [Caspofungin]
MIC ([1]; Nakaseomyces glabratus): 0.063 µg/mL (≈ 0.0576 µM)
MIC [2, 35]: 0.031 µg/mL (≈ 0.0284 µM)
MIC [3, 35]: 0.031 µg/mL (≈ 0.0284 µM)
MIC ([4]; Candida albicans, ATCC10231): 0.125 µg/mL (≈ 0.114 µM)
MIC ([5]; Nakaseomyces glabratus): 0.063 µg/mL (≈ 0.0576 µM)
MIC ([6]; Nakaseomyces glabratus, ATCC15126): 0.125 µg/mL (≈ 0.114 µM)
MIC ([7]; Nakaseomyces glabratus, TGL00263): 8 µg/mL (≈ 7.32 µM)
MIC ([8]; Nakaseomyces glabratus, TGL00277): > 64 µg/mL
MIC [9, 36]: 0.125 µg/mL (≈ 0.114 µM)
MIC ([10]; Candida albicans, SC5314): 16 µg/mL (≈ 14.6 µM)
MIC ([11]; Candida albicans): 16 µg/mL (≈ 14.6 µM)
MIC ([12]; Nakaseomyces glabratus, TGL00293): > 64 µg/mL
MIC ([13]; Nakaseomyces glabratus, TGL00265): > 64 µg/mL
MIC ([14]; Nakaseomyces glabratus, TGL00056): > 64 µg/mL
MIC [15, 35]: 0.031 µg/mL (≈ 0.0284 µM)
MIC ([16]; Candida albicans, SC5314): 16 µg/mL (≈ 14.6 µM)
MIC ([17]; Candida albicans, SC5314): 4 µg/mL (≈ 3.66 µM)
MIC [18, 35]: 0.063 µg/mL (≈ 0.0576 µM)
MIC [19, 36]: 0.125 µg/mL (≈ 0.114 µM)
MIC ([20]; Nakaseomyces glabratus, TGL00253): > 64 µg/mL
MIC ([21]; Candida albicans): 2 µg/mL (≈ 1.83 µM)
MIC ([22]; Candida albicans): > 64 µg/mL
MIC ([23]; Nakaseomyces glabratus, TGL00054): > 64 µg/mL
MIC ([24]; Nakaseomyces glabratus, TGL00065): > 64 µg/mL
MIC ([25]; Nakaseomyces glabratus, TGL00294): 16 µg/mL (≈ 14.6 µM)
MIC ([26]; Nakaseomyces glabratus, TGL00091): > 64 µg/mL
MIC ([27]; Nakaseomyces glabratus, TGL00275): 8 µg/mL (≈ 7.32 µM)
MIC ([28]; Nakaseomyces glabratus, TGL00258): > 64 µg/mL
MIC ([29]; Nakaseomyces glabratus, TGL00107): > 64 µg/mL
MIC ([30]; Nakaseomyces glabratus, ATCC90030): 2 µg/mL (≈ 1.83 µM)
MIC ([31]; Nakaseomyces glabratus, TGL00291): > 64 µg/mL
MIC ([32]; Candida albicans): 1 µg/mL (≈ 0.915 µM)
MIC ([33]; Nakaseomyces glabratus, TGL00264): 2 µg/mL (≈ 1.83 µM)
MIC ([34]; Nakaseomyces glabratus, TGL00256): 1 µg/mL (≈ 0.915 µM)
